# In EP2229935A1, “Peptide derivatives or pharmaceutically acceptable salts thereof, method for producing the same, use of said derivatives and pharmaceutical composition” (Nebolsin, Vladimir Evgenievich, priority 1997, dated 1999):
# Read-outs that look alike come from different tables or passages of the source. Marks after values point to notes of the source that are not given here.
# Columns and labels:
# [1] = system: Strain Aichi of type A human influenza virus; type: in vivo; details: for Survival rate in percent: series with Control - 2 (34.5); for Protection degree in percent: series with Control - 2
# [2] = system: Lewis pulmonary carcinoma (LLC); assay: Lewis pulmonary carcinoma growth; type: in vivo; details: mice with LLC, day 12; for Growth inhibition percent: compound in drinking water; for Tumor volume (mm^3): compound in drinking water from 24 hours after transplantation
# Procedure: Experiments were carried out on male mice with initial body mass 18-20 g. Each group included 10 animals. […] Administration of compounds II, III, IX, X, XII, XIV, XV, XVI, XVII, XIX, XXII, XLVII in drinking water was commenced 24 hours following transplantation and continued till the end of experiment. Effect of the compounds on Lewis rat pulmonary carcinoma (LLC) was estimated by day 12 of experiment by change in tumor volume expressed in mm^3.
# mongrel male rats = assay: Hypolipidemic activity: experimental hyperlipidemia (atherogenic load); details: atherogenic diet, oral last four days; for HDL-CS / LDL-CS+ VLDL-CS / Total CS / Triglycerides: blood; for Kcs: cholesterol index;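 as to all read-outs here: serum drawn 18 h after the final dose from rats deprived of food over that interval, groups of 10 animals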
# superoxide anion-radical = assay: Superoxide anion-radical formation in the xantine-xantine oxidase system (chemiluminescence); type: biochemical
# Procedure: Effect of the compounds of general formula (I) on change in chemiluminescence (CL) determined by hydroxyl radical ( OH) and superoxide anion-radical (O2-), in the model chemical and enzymatic systems.
# 5 to 10 ml of the test compounds dissolved in water were at needed concentration introduced into a cuvette. A total sample volume was 0.5 ml. • B. Superoxide anion-radical in the mixture of xantine and xantine oxidase [Afanas'ev I., Suslova T., Cheremisina Z. et al. Study of antioxidant properties of metal aspartates.
# Incubation medium comprised 5 mM KH2PO4; 0.2 IU/ml xantine oxidase. Xantine at concentration 1 mM was introduced into sample through a dispencer. Luceginine (0.2 mM) was used in this system as luminiscence sensitizer.
# CL signal indication was performed by its integration every 10 seconds for 5 minutes. CL flash recording duration after mixing ingredients, depended on a particular process kinetics. For each system, CL light sum (mV) was determined in the control samples without preparations (I-) and in samples comprising respective concentrations of preparations (I+). To estimate CL inhibition (activation) degree, the I+/I- ratio (in relative units) was found in the studied systems.
# AOF formation and effect of the test compounds on this process were recorded on the Luminometer-1251 instrument (LKB, Sweden).
# Because of such "distension" of the kinetic curve, chemiluminescence light sum was recorded during the first 3-5 minutes which reflected a total amount of light quantums produced in the system till achieving the maximum CL intensity values.
# hydroxyl radical = assay: Hydroxyl radical formation in the Fenton reagent (chemiluminescence); type: biochemical
# Procedure: Active oxygen forms (AOF) of different nature were generated in the following systems: • A. Hydroxyl radical - in the mixture of FeSO4 with H2O2 (the Fenton reagent) [Halliwell B. Superoxide-dependent formation of hydroxyl radicals in the presence of iron salts. […] Incubation medium comprised 5 mM KH2PO4 (pH 7.4); 5 mM FeSO4; 2 mM luminol. H2O2 at final concentration 5 mM was introduced into a cuvette through a dispencer following background luminescence recording of the reagents' mixture. 5 to 10 ml of the test compounds dissolved in water were at needed concentration introduced into a cuvette.
# CL flash recording duration after mixing ingredients, depended on a particular process kinetics. For each system, CL light sum (mV) was determined in the control samples without preparations (I-) and in samples comprising respective concentrations of preparations (I+). To estimate CL inhibition (activation) degree, the I+/I- ratio (in relative units) was found in the studied systems.
# When H2O2 was introduced into phosphate buffer comprising iron sulfate, CL flash occured which was caused by formation of predominantly hydroxyl radical in the reaction mixture.
# [3] = system: hepatic P-450 cytochrome system; assay: Hexenal sleep duration in mice; type: in vivo; details: CBF1 mice, oral 3 days, control 25.91 ± 1.57
# Procedure: Change in Hexenal sleep (HS) duration is the in vivo measurable index of hepatic P-450 cytochrome system condition.
# Studies were carried out on male mice of the lines BALB/c*h75, C57B1/6, CBA, DBA/2, first generation CBF1 and BDF1 hybrides, with initial mass 18-20 g, each group including 10 mice; and on mongrel male guinea pigs with initial mass 250-300 g, each group including 24 animals. All the test compounds (from II to LII) were administered orally in drinking water and for three days at doses 50 and 500 µg/kg. Hexenal hydrochloride at a dose […] of animal mass was administered 24 hours after the last drug administration, except for line BALB/c*h75 mice, which were administered Hexenal at a dose 60 µg/kg at the same terms, and guinea pigs for which Hexenal dose was 30 µg/kg. HS duration was determined in minutes.
# [4] = system: Lewis pulmonary carcinoma (LLC); assay: Lewis pulmonary carcinoma spontaneous metastasizing, oral administration; type: in vivo; details: BDF1 female mice with LLC, oral 24 days, 500 µg/kg
# Procedure: Each group included 15 animals. 0.3 ml of LLC tumor tissue suspension was intramuscularly injected to mice. Henks solution was used as a solvent. […] Moscow (1992) 13 pp.]. […]
# [5] = series with Control - 2 (9.1), […]
# [6] = 0.1 mM, control of the series as in the table
# [7] = 1 mM, control of the series 5616 ± 173, 5391 ± 195, 7290 ± 128 or 6776 ± 150
# [8] = 0.01 mM, control of the series as in the table
# [9] = 1 mM, control of the series 7839 ± 171, 1120 ± 163, 4974 ± 283 or 1332 ± 172
structure (smiles),measurement,setting,value
"NCCCC(=O)NCCc1c[nH]cn1 [compound XLVII, γ-Aminobutyrylhistamine]",MLT,[1]; [5],10.0 days
same,"MLT, days",[1]; [5],13.0*^2 days
same,Survival rate in percent,[1]; 50 µg/kg orally,83.3*^2%
same,Survival rate in percent,[1]; 500 µg/kg orally,79.3*^2%
same,Protection degree in percent,[1]; 50 µg/kg orally,48.8%
same,Protection degree in percent,[1]; 500 µg/kg orally,44.8%
same,Growth inhibition percent,[2],45%
same,Tumor volume (mm^3),[2],826 ± 119* mm^3
same,HDL-CS,mongrel male rats; 50 µg/kg,"44,1±1,9**^A"
same,LDL-CS+ VLDL-CS,mongrel male rats; 50 µg/kg,"42,4±1,7***^A"
same,Total CS,mongrel male rats; 50 µg/kg,"86,5±3,9*^A"
same,HDL-CS,mongrel male rats; 500 µg/kg,"40,8±4,8"
same,LDL-CS+ VLDL-CS,mongrel male rats; 500 µg/kg,"50,8±3,6**^A"
same,Total CS,mongrel male rats; 500 µg/kg,"90,0±2,4"
same,Triglycerides,mongrel male rats; 500 µg/kg,"116,7±10,8*^A"
same,Kcs,mongrel male rats; 50 µg/kg,"0,96±0,04***^A"
same,Kcs,mongrel male rats; 500 µg/kg,"1,27±0,09"
O=C(O)CCCC(=O)NCCc1ccccc1 [XXI],relative effect: 1+/I-,superoxide anion-radical; 0.1 mM,0.89
same,Chemiluminiscence intensity (mV) + σn-1,superoxide anion-radical; [6],6460 ± 166 mV
same,relative effect: 1+/I-,superoxide anion-radical; 1 mM,0.58
same,Chemiluminiscence intensity (mV) + σn-1,superoxide anion-radical; [7],4232 ± 146 mV
same,Growth inhibition percent,[2],25%
same,Tumor volume (mm^3),[2],1023 ± 207 mm^3
same,relative effect: I+/I-,hydroxyl radical; 0.01 mM,0.81
same,Chemiluminiscence intensity (mV) + σn-1,hydroxyl radical; [8],4036 ± 186 mV
same,relative effect: I+/I-,hydroxyl radical; 0.1 mM,0.66
same,Chemiluminiscence intensity (mV) + σn-1,hydroxyl radical; [6],3265 ± 184 mV
same,relative effect: I+/I-,hydroxyl radical; 1 mM,0.05
same,Chemiluminiscence intensity (mV) + σn-1,hydroxyl radical; [9],228 ± 72 mV
"O=C1CC[C@@H](C(=O)NCCc2c[nH]cn2)N1 [LII, Pyroglutamylhistamine]",Hexenal sleep duration,[3]; 50 µg/kg,21.14 ± 1.39 min
"CCCCCCCNC(=O)Cc1c[nH]cn1 [XXXIII, N-(IMIDAZOLYL-4-ACETHYL)-HEPTHYLAMINE]",Hexenal sleep duration (minutes),[3]; 500 µg/kg,19.82 ± 2.12* minutes
same,Survival rate in percent,[1]; 50 µg/kg orally,63.3%
same,Survival rate in percent,[1]; 500 µg/kg orally,76.6*^2%
same,Protection degree in percent,[1]; 50 µg/kg orally,28.8%
same,Protection degree in percent,[1]; 500 µg/kg orally,76.6%
"COC(=O)[C@@H](N)CCC(=O)N[C@@H](Cc1c[nH]cn1)C(=O)O.Cl.Cl [compound XI, γ-L-GLUTAMYL HISTIDINE α-METHYL ETHER DICHLOROHYDRATE]",Hexenal sleep duration (minutes),[3]; 500 µg/kg,17.71 ± 0.66*** minutes
same,relative effect: 1+/I-,superoxide anion-radical; 0.1 mM,0.82
same,Chemiluminiscence intensity (mV) + σn-1,superoxide anion-radical; [6],4621 ± 224 mV
same,relative effect: 1+/I-,superoxide anion-radical; 1 mM,0.40
same,Chemiluminiscence intensity (mV) + σn-1,superoxide anion-radical; [7],2263 ± 278 mV
same,Chemiluminiscence intensity (mV) + σn-1,"hydroxyl radical; 1 µM, control of the series as in the table",1116 ± 90 mV
same,Chemiluminiscence intensity (mV) + σn-1,hydroxyl radical; [8],1124 ± 113 mV
same,relative effect: I+/I-,hydroxyl radical; 1 mM,0.50
same,Chemiluminiscence intensity (mV) + σn-1,hydroxyl radical; [9],557 ± 52 mV
"Cl.O=C(O)CCCCC(=O)NCCc1c[nH]cn1 [IV, N-ADIPINYLHISTAMINE CHLOROHYDRATE]",Hexenal sleep duration (minutes),[3]; 50 µg/kg,20.39 ± 1.59* minutes
"COC(=O)[C@H](Cc1c[nH]cn1)NC(=O)CCCC(=O)O [IX, N-GLUTARYL-L-HISTIDINE METHYL ETHER]",Hexenal sleep duration (minutes),[3]; 50 µg/kg,16.71 ± 0.94** minutes
same,Hexenal sleep duration,[3]; 500 µg/kg,20.76 ± 1.32 min
same,Mean number of metastases,[4]; day 25,38.5 ± 5.7*^3
same,Metastasizing inhibition percent,[4],24.0%
same,Growth inhibition percent,[2],10%
same,Tumor volume (mm^3),[2],2372 ± 323 mm^3
same,relative effect: I+/I-,hydroxyl radical; 0.01 mM,0.95
same,Chemiluminiscence intensity (mV) + σn-1,hydroxyl radical; [8],1069 ± 72 mV
same,relative effect: I+/I-,hydroxyl radical; 0.1 mM,0.59
same,Chemiluminiscence intensity (mV) + σn-1,hydroxyl radical; [6],664 ± 47 mV
same,relative effect: I+/I-,hydroxyl radical; 1 mM,0.20
same,Chemiluminiscence intensity (mV) + σn-1,hydroxyl radical; [9],225 ± 9 mV
same,HDL-CS,mongrel male rats; 50 µg/kg,"29,7±3,6*^A"
same,LDL-CS+ VLDL-CS,mongrel male rats; 50 µg/kg,"48,7±4,4**^A"
same,Total CS,mongrel male rats; 50 µg/kg,"78,4±4,4*^A"
same,Triglycerides,mongrel male rats; 50 µg/kg,"24,5±20,2"
same,HDL-CS,mongrel male rats; 500 µg/kg,"20,1±1,6"
same,LDL-CS+ VLDL-CS,mongrel male rats; 500 µg/kg,"52,0±3,4**^A"
same,Total CS,mongrel male rats; 500 µg/kg,"72,1±3,9**^A"
same,Triglycerides,mongrel male rats; 500 µg/kg,"201.8±8,1***^A"
same,Kcs,mongrel male rats; 50 µg/kg,"1,64±0,16***^A"
same,Kcs,mongrel male rats; 500 µg/kg,"2,59±0,17***^A"
